Experimental findings from patent US20100137206A1, “NOVEL LIGAND GUIDED BLOCK COPOLYMERS FOR TARGETED DRUG DELIVERY” (priority 2006, published 2010) are described below.

Where two headings read alike, the source gives them in different places.

This assay has as its system B16-F10 cells. The experiment in a line: MTT cytotoxicity of DOX-containing micelles. The format is cell-based. Particulars: for IC50: read-out: IC50 (μM) of DOX equivalent. The procedure: Briefly, 4000 cells were plated in 96-well plates and incubated for 24 h to allow the cells to attach. […] Living cells metabolize MTT to a dark formazan dye. The cell culture media was removed by aspiration and replaced with 200 μL DMSO. The absorbance was measured spectrophotometrically using a microplate reader at dual wavelengths of 570 nm and 650 nm. The data reported represent the means of triplicate measurement.

Turning to `COc1cccc2c1C(=O)c1c(O)c3c(c(O)c1C2=O)C[C@@](O)(C(=O)CO)C[C@@H]3O[C@H]1C[C@H](N)[C@H](O)[C@H](C)O1` [Free DOX, doxorubicin, reference compound], the IC50 (as a rule, the concentration that inhibits the measured activity by half) is 0.417 µM (24 h incubation) and 0.204 µM (48 h incubation).

Turning to “doxorubicin-conjugated acetal polyethylene oxide)-block-poly(caprolactone) [Acetal-PEO-b-PCL(DOX)]”, under “24 h incubation”, the “fold difference of IC50 in comparison to free DOX” value is 14.3 fold and the IC50 is 5.95 µM. Moreover, where the note is “48 h incubation”, the “fold difference of IC50 in comparison to free DOX” value amounted to 6.3 fold and the IC50 turned out to be 1.28 µM.
